Like-named read-outs stand apart in the source and are kept apart here.
Biological target: human PDE4D catalytic domain (UniProt no. Q08499) (Homo sapiens (Human), UniProt Q08499)
Assay: PDE4 assay (TR-FRET, FAM-cAMP cleavage)
Format: biochemical
Details: read-out: PDE4 IC50 range
Method: The human PDE4D catalytic domain (UniProt no. Q08499 [[…]]) was incubated with a mixture of non-labelled cAMP (cyclic adenosine monophosphate) and fluorescein amidite (FAM) conjugated cAMP and titrated test or reference compound. Following brief incubation the enzymatic reaction was stopped by addition of binding buffer containing nanoparticles with immobilized trivalent metal ions capable of binding 1) AMP phospho groups and 2) terbium (Tb) donor fluorophores. Subsequent excitation of the Tb donor triggers time-resolved FRET to adjacent FAM acceptor molecules resulting in light emission. In the presence of a PDE4 inhibitor, AMP generation was reduced resulting in a lower fluorescence signal. The cAMP phosphodiester is not bound by the detection system.
The results were calculated as the molar concentrations resulting in 50% inhibition of the substrate cleavage compared to controls samples, and are expressed as a range of IC50 (nM).

[1] = human PDE4D catalytic domain, molar concentration giving 50% inhibition of substrate cleavage

Sequence of human PDE4D catalytic domain (Q08499 380-740 limits assumed): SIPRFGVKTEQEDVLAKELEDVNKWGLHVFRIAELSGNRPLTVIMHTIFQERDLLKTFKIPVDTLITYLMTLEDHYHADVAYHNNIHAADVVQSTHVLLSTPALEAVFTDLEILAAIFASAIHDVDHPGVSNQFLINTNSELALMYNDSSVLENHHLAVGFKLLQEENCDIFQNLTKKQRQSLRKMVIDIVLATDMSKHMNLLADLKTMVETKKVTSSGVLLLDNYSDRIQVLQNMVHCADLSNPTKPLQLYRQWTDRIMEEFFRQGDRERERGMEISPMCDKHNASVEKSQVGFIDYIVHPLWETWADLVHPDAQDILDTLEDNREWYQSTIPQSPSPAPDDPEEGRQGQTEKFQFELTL

## CCc1nn(CCCOC(=O)c2ccccc2OC)c2c1C(=O)NCC1(CCOCC1)C2 [Example 30, 3-(3-ethyl-4-oxo-spiro[6,8-dihydro-5H-pyrazolo[4,3-c]azepine-7,4′-tetrahydropyran]-1-yl)propyl 2-methoxybenzoate]
[1]
  IC50: < 100 nM

## CCc1nn(CCCOC(=O)c2cccc(C(C)=O)c2)c2c1C(=O)NCC1(CCOCC1)C2 [Example 51, 3-(3-ethyl-4-oxo-spiro[6,8-dihydro-5H-pyrazolo[4,3-c]azepine-7,4′-tetrahydropyran]-1-yl)propyl 3-acetylbenzoate]
[1]
  IC50: < 100 nM

## CCc1nn(CCCCOC(=O)c2ccc(S(=O)(=O)N(C)C)cc2)c2c1C(=O)NCC1(CCOCC1)C2 [Example 375, 4-(3-ethyl-4-oxo-spiro[6,8-dihydro-5H-pyrazolo[4,3-c]azepine-7,4′-tetrahydropyran]-1-yl)butyl 4-(dimethylsulfamoyl)benzoate]
  IC50: 100 to 500 nM

## CCc1nn(CC(C)(C)COC(=O)c2cccc(S(=O)(=O)NC)c2)c2c1C(=O)NCC1(CCOCC1)C2 [Example 313, [3-(3-ethyl-4-oxo-spiro[6,8-dihydro-5H-pyrazolo[4,3-c]azepine-7,4′-tetrahydropyran]-1-yl)-2,2-dimethyl-propyl] 3-(methylsulfamoyl)benzoate]
  IC50: < 100 nM

## CCc1nn(C[C@@H](C)COC(=O)c2ccc(C)c(C)c2)c2c1C(=O)NCC1(CCOCC1)C2 [Example 169, [(2R)-3-(3-ethyl-4-oxo-spiro[6,8-dihydro-5H-pyrazolo[4,3-c]azepine-7,4′-tetrahydropyran]-1-yl)-2-methyl-propyl] 3,4-dimethylbenzoate]
[1]
  IC50: < 100 nM

## CCc1nn(C[C@@H](C)COC(=O)c2ccc(S(=O)(=O)NC)cc2)c2c1C(=O)NCC1(CCOCC1)C2 [Example 3, [(2R)-3-(3-Ethyl-4-oxo-spiro[6,8-dihydro-5H-pyrazolo[4,3-c]azepine-7,4′-tetrahydro-pyran]-1-yl)-2-methyl-propyl] 4-(methylsulfamoyl)benzoate]
[1]
  IC50: < 100 nM

## CCc1nn(CC(C)(C)COC(=O)c2cccc(C(=O)N(C)C)c2)c2c1C(=O)NCC1(CCOCC1)C2 [Example 342, [3-(3-ethyl-4-oxo-spiro[6,8-dihydro-5H-pyrazolo[4,3-c]azepine-7,4′-tetrahydropyran]-1-yl)-2,2-dimethyl-propyl] 3-(dimethylcarbamoyl)-benzoate]
  IC50: < 100 nM

## CCc1nn(C[C@@H](C)COC(=O)c2ccc(C)cc2)c2c1C(=O)NCC1(CCOCC1)C2 [Example 164, [(2R)-3-(3-ethyl-4-oxo-spiro[6,8-dihydro-5H-pyrazolo[4,3-c]azepine-7,4′-tetrahydropyran]-1-yl)-2-methyl-propyl] 4-methylbenzoate]
[1]
  IC50: < 100 nM

## CCc1nn(C[C@@H](C)COC(=O)c2cc(F)ccc2Cl)c2c1C(=O)NCC1(CCOCC1)C2 [Example 200, [(2R)-3-(3-ethyl-4-oxo-spiro[6,8-dihydro-5H-pyrazolo[4,3-c]azepine-7,4′-tetrahydropyran]-1-yl)-2-methyl-propyl] 2-chloro-5-fluoro-benzoate]
[1]
  IC50: < 100 nM

## CCc1nn(C[C@@H](C)COC(=O)c2ccc(OC)c(C)c2)c2c1C(=O)NCC1(CCOCC1)C2 [Example 186, [(2R)-3-(3-ethyl-4-oxo-spiro[6,8-dihydro-5H-pyrazolo[4,3-c]azepine-7,4′-tetrahydropyran]-1-yl)-2-methyl-propyl] 4-methoxy-3-methyl-benzoate]
[1]
  IC50: < 100 nM

## CCc1nn(CCCOC(=O)c2cc(C)ccc2F)c2c1C(=O)NCC1(CCOCC1)C2 [Example 37, 3-(3-ethyl-4-oxo-spiro[6,8-dihydro-5H-pyrazolo[4,3-c]azepine-7,4′-tetrahydropyran]-1-yl)propyl 2-fluoro-5-methyl-benzoate]
[1]
  IC50: < 100 nM

## CCc1nn(CCCOC(=O)c2ccc(OC)c(F)c2)c2c1C(=O)NCC1(CCOCC1)C2 [Example 62, 3-(3-ethyl-4-oxo-spiro[6,8-dihydro-5H-pyrazolo[4,3-c]azepine-7,4′-tetrahydropyran]-1-yl)propyl 3-fluoro-4-methoxy-benzoate]
[1]
  IC50: < 100 nM

## CCc1nn(CCCOC(=O)c2c(F)cccc2Cl)c2c1C(=O)NCC1(CCOCC1)C2 [Example 80, 3-(3-ethyl-4-oxo-spiro[6,8-dihydro-5H-pyrazolo[4,3-c]azepine-7,4′-tetrahydropyran]-1-yl)propyl 2-chloro-6-fluoro-benzoate]
[1]
  IC50: < 100 nM

## CCc1nn(CCCCOC(=O)c2ccc(C(=O)NC)cc2)c2c1C(=O)NCC1(CCOCC1)C2 [Example 379, 4-(3-ethyl-4-oxo-spiro[6,8-dihydro-5H-pyrazolo[4,3-c]azepine-7,4′-tetrahydropyran]-1-yl)butyl 4-(methylcarbamoyl)benzoate]
  IC50: 100 to 500 nM

## CCc1nn(C[C@@H](C)COC(=O)c2ccc(C(=O)N3CCN(C)CC3)cc2)c2c1C(=O)NCC1(CCOCC1)C2 [Example 261, [(2R)-3-(3-ethyl-4-oxo-spiro[6,8-dihydro-5H-pyrazolo[4,3-c]azepine-7,4′-tetrahydropyran]-1-yl)-2-methyl-propyl] 4-(4-methylpiperazine-1-carbonyl)benzoate]
[1]
  IC50: < 100 nM

## CCc1nn(CCCOC(=O)c2ccc(C(=O)N(C)C)cc2)c2c1C(=O)NCC1(CCOCC1)C2 [Example 143, 3-(3-ethyl-4-oxo-spiro[6,8-dihydro-5H-pyrazolo[4,3-c]azepine-7,4′-tetrahydropyran]-1-yl)propyl 4-(dimethylcarbamoyl)-benzoate]
[1]
  IC50: 100 to 500 nM

## CCc1nn(CCCOC(=O)c2cccc(OC)c2)c2c1C(=O)NCC1(CCOCC1)C2 [Example 29, 3-(3-ethyl-4-oxo-spiro[6,8-dihydro-5H-pyrazolo[4,3-c]azepine-7,4′-tetrahydropyran]-1-yl)propyl 3-methoxybenzoate]
[1]
  IC50: < 100 nM

## CCc1nn(CCCOC(=O)c2cc(F)cc(C(F)(F)F)c2)c2c1C(=O)NCC1(CCOCC1)C2 [Example 108, 3-(3-ethyl-4-oxo-spiro[6,8-dihydro-5H-pyrazolo[4,3-c]azepine-7,4′-tetrahydropyran]-1-yl)propyl 3-fluoro-5-(trifluoromethyl)benzoate]
[1]
  IC50: < 100 nM

## CCc1nn(CC(C)(C)COC(=O)c2ccc(C(=O)N3CCCCC3)cc2)c2c1C(=O)NCC1(CCOCC1)C2 [Example 334, [3-(3-ethyl-4-oxo-spiro[6,8-dihydro-5H-pyrazolo[4,3-c]azepine-7,4′-tetrahydropyran]-1-yl)-2,2 dimethyl-propyl] 4-(piperidine-1-carbonyl)benzoate]
  IC50: < 100 nM

## CCc1nn(C[C@@H](C)COC(=O)c2cc(Cl)ccc2OC)c2c1C(=O)NCC1(CCOCC1)C2 [Example 210, [(2R)-3-(3-ethyl-4-oxo-spiro[6,8-dihydro-5H-pyrazolo[4,3-c]azepine-7,4′-tetrahydropyran]-1-yl)-2-methyl-propyl] 5-chloro-2-methoxy-benzoate]
[1]
  IC50: < 100 nM

## CCc1nn(C[C@@H](C)COC(=O)c2ccc(Cl)c(F)c2)c2c1C(=O)NCC1(CCOCC1)C2 [Example 199, [(2R)-3-(3-ethyl-4-oxo-spiro[6,8-dihydro-5H-pyrazolo[4,3-c]azepine-7,4′-tetrahydropyran]-1-yl)-2-methyl-propyl] 4-chloro-3-fluoro-benzoate]
[1]
  IC50: < 100 nM

## CCc1nn(CC(C)(C)COC(=O)c2cc(F)cc(F)c2)c2c1C(=O)NCC1(CCOCC1)C2 [Example 293, [3-(3-ethyl-4-oxo-spiro[6,8-dihydro-5H-pyrazolo[4,3-c]azepine-7,4′-tetrahydropyran]-1-yl)-2,2-dimethyl-propyl] 3,5-difluorobenzoate]
  IC50: < 100 nM

## CCc1nn(CCCOC(=O)c2ccc(C)cc2OC)c2c1C(=O)NCC1(CCOCC1)C2 [Example 60, 3-(3-ethyl-4-oxo-spiro[6,8-dihydro-5H-pyrazolo[4,3-c]azepine-7,4′-tetrahydropyran]-1-yl)propyl 2-methoxy-4-methyl-benzoate]
[1]
  IC50: < 100 nM

## CCc1nn(CCCOC(=O)CCSC)c2c1C(=O)NCC1(CCOCC1)C2 [Example 13, 3-(3-ethyl-4-oxo-spiro[6,8-dihydro-5H-pyrazolo[4,3-c]azepine-7,4′-tetrahydropyran]-l-yl)propyl 3-methylsulfanylpropanoate]
[1]
  IC50: 100 to 500 nM

## CCc1nn(CCCOC(=O)c2ccc(C)c(Cl)c2)c2c1C(=O)NCC1(CCOCC1)C2 [Example 72, 3-(3-ethyl-4-oxo-spiro[6,8-dihydro-5H-pyrazolo[4,3-c]azepine-7,4′-tetrahydropyran]-1-yl)propyl 3-chloro-4-methyl-benzoate]
[1]
  IC50: < 100 nM

## CCc1nn(C[C@@H](C)COC(=O)c2ccc(F)c(C(F)(F)F)c2)c2c1C(=O)NCC1(CCOCC1)C2 [Example 224, [(2R)-3-(3-ethyl-4-oxo-spiro[6,8-dihydro-5H-pyrazolo[4,3-c]azepine-7,4′-tetrahydropyran]-1-yl)-2-methyl-propyl] 4-fluoro-3-(trifluoromethyl)benzoate]
[1]
  IC50: < 100 nM

## CCc1nn(C[C@@H](C)COC(=O)c2ccc(C(C)=O)cc2)c2c1C(=O)NCC1(CCOCC1)C2 [Example 180, [(2R)-3-(3-ethyl-4-oxo-spiro[6,8-dihydro-5H-pyrazolo[4,3-c]azepine-7,4′-tetrahydropyran]-1-yl)-2-methyl-propyl] 4-acetylbenzoate]
[1]
  IC50: < 100 nM

## CCc1nn(CCCOC(=O)c2ccc(Cl)c(OC)c2)c2c1C(=O)NCC1(CCOCC1)C2 [Example 87, 3-(3-ethyl-4-oxo-spiro[6,8-dihydro-5H-pyrazolo[4,3-c]azepine-7,4′-tetrahydropyran]-1-yl)propyl 4-chloro-3-methoxy-benzoate]
[1]
  IC50: < 100 nM

Reference: patent US10906915B2, “Substituted pyrazoloazepin-4-ones and their use as phosphodiesterase inhibitors” (LEO Pharma A/S, priority 2016, dated 2021)
